Assay results as given in US6451804B1, “Heteroalkylamino-substituted bicyclic nitrogen heterocycles” (Syntex (U.S.A.) LLC, priority 1999, dated 2002).
pIC50: −log10 of the molar value. Structures can show the parent of a compound that is named as a salt.

test system: not given; experiment: not given; settings: not given

SMILES	melting point [°C]
Cc1ccccc1N1Cc2cnc(NC3CCN(CCO)CC3)nc2N(C)C1=O [Compound 2-13, 7-[1-(2-hydroxyethyl)-piperidin-4-ylamino]-1-methyl-3-ortho-tolyl-3,4-dihydropyrimido[4,5-d]pyrimidin-2(1H)-one]	250 to 257
CN1C(=O)N(c2ccccc2Cl)Cc2cnc(NCC(C)(C)CN)nc21 [Compound 3-1]	183 to 235
N#CCN1C(=O)N(c2ccccc2Cl)Cc2cnc(N[C@H]3CC[C@H](O)CC3)nc21 [Compound 3-55, 3-(2-chlorophenyl)-7-(trans-4-hydroxycyclohexylamino)-1-cyanomethyl-3,4-dihydropyrimido[4,5-d]-pyrimidin-2(1H)-one]	130.8
O=C1N(c2ccccc2Cl)Cc2cnc(N[C@H]3CC[C@H](O)CC3)nc2N1CCO [Compound 3-56, 3-(2-chlorophenyl)-7-(trans-4-hydroxycyclohexylamino)-1-(2-hydroxyethyl)-3,4-dihydropyrimido[4,5-d]pyrimidin-2(1H)-one]	96.6 to 122.8
O=CO[C@H]1CC[C@H](Nc2ncc3c(n2)NC(=O)N(c2ccccc2Cl)C3)CC1 [Compound 4-15, 3-(2-chlorophenyl)-7-(trans-4-formyloxycyclohexylamino)-3,4-dihydropyrimido[4,5-d]pyrimidin-2(1H)-one]	> 300
CS(=O)(=O)N[C@H]1CC[C@H](Nc2ncc3c(n2)NC(=O)N(c2ccccc2Cl)C3)CC1 [Compound 4-28, 3-(2-chlorophenyl)-7-[trans-4-(methanesulfonylamino)cyclohexylamino]-3,4-dihydropyrimido[4,5-d]pyrimidin-2(1H)-one]	292.8 to 293.2

The remaining lines, values ahead:

melting point [°C]	SMILES
199 to 204	C[C@@H](O)[C@H](CO)Nc1ncc2c(n1)N(C)C(=O)N(c1ccccc1Cl)C2 (stereo in doubt) (as salt: hydrochloride) [Compound 1-13, 3-(2-chlorophenyl)-7-((1S,2R)-2-hydroxy-1-hydroxymethyl-propylamino)-1-methyl-3,4-dihydropyrimido-[4,5-d]pyrimidin-2(1H)-one]
119.8 to 121.8	Cc1ccccc1N1Cc2cnc(N[C@H](C)[C@@H](O)CO)nc2N(C)C1=O [Compound 3-23, 7-((R,R)-2,3-dihydroxy-1-methylpropylamino)-3-ortho-tolyl-1-methyl-3,4-dihydropyrimido[4,5-d]pyrimidin-2(1H)-one]
212 to 215	COC(=O)CN1C(=O)N(c2ccccc2Cl)Cc2cnc(N[C@H]3CC[C@H](O)CC3)nc21 [Compound 3-49, 3-(2-chlorophenyl)-7-(trans-4-hydroxycyclohexylamino)-1-methoxycarbonylmethyl-3,4-dihydropyrimido[4,5-d]pyrimidin-2(1H)-one]
230 to 240	O=C(O)CN1C(=O)N(c2ccccc2Cl)Cc2cnc(N[C@H]3CC[C@H](O)CC3)nc21 [Compound 3-53, 3-(2-chlorophenyl)-7-(trans-4-hydroxycyclohexylamino)-1-hydroxycarbonylmethyl-3,4-dihydropyrimido[4,5-d]pyrimidin-2(1H)-one]
130 to 133.5	O=C1N(c2ccccc2Cl)Cc2cnc(N[C@H]3CC[C@H](O)CC3)nc2N1CC(F)(F)F [Compound 3-60, 3-(2-chlorophenyl)-7-(trans-4-hydroxycyclohexylamino)-1-(2,2,2-trifluoroethyl)-3,4-dihydropyrimido[4,5-d]pyrimidin-2(1H)-one]

target: T1, p38 MAP kinase (Homo sapiens, UniProt Q16539); experiment: In vitro p38 MAP kinase inhibition assay (transfer of γ-phosphate from γ-33P-ATP to Myelin Basic Protein); assay type: biochemical; settings: phosphorylated recombinant p38 MAP kinase, MBP substrate
T1 construct: made in house; host or cells: E. coli (co-expressed with SEK-1 and MEKK)
Description: This example illustrates a p38 (MAP) kinase in vitro assay useful for evaluating the compounds of the present invention.
The p38 MAP kinase inhibitory activity of compounds of this invention in vitro was determined by measuring the transfer of the γ-phosphate from γ-^33P-ATP by p38 kinase to Myelin Basic Protein (MBP), using a minor modification of the method described in Ahn, et al., J. Biol. Chem. 266:4220-4227 (1991).
The phosphorylated form of the recombinant p38 MAP kinase was co-expressed with SEK-1 and MEKK in E. Coli (see, Khokhlatchev, et al., J. Biol. Chem. 272:11057-11062 (1997)) and then purified by affinity chromatography using a Nickel column.
The phosphorylated p38 MAP kinase was diluted in kinase buffer (20 mM 3-(N-morpholino)propanesulfonic acid, pH 7.2, 25 mM β-glycerol phosphate, 5 mM ethylene glycol-bis(beta-aminoethyl ether)-N,N,N′,N′-tetraacetic acid, 1 mM sodium ortho-vanadate, 1 mM dithiothreitol, 40 mM magnesium chloride). Test compound dissolved in DMSO or only DMSO (control) was added and the samples were incubated for 10 minutes at 30° C. The kinase reaction was initiated by the addition of a substrate cocktail containing MBP and γ-^33P-ATP. After incubating for an additional 20 minutes at […], the reaction was terminated by adding 0.75% phosphoric acid. The phosphorylated MBP was then separated from the residual γ-^33P-ATP using a phosphocellulose membrane (Millipore, Bedfrod, Mass.) and quantitated using a scintillation counter (Packard, Meriden, Conn.).

T1 sequence (Q16539 whole entry): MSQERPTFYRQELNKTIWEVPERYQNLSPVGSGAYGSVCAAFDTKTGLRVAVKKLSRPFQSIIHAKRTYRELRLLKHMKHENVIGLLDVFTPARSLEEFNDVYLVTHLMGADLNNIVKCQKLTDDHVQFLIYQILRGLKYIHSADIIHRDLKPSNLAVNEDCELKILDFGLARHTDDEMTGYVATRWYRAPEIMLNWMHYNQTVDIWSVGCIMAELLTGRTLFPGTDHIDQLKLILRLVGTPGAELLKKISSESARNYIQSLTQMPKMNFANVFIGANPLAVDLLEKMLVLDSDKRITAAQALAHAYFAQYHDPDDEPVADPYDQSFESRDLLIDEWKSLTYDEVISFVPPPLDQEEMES

SMILES	pIC50
CN1C(=O)N(c2ccccc2Cl)Cc2cnc(NCC(C)(C)CN)nc21 [Compound 3-1]	> 5.00
Cc1ccccc1N1Cc2cnc(NCC(C)(C)CN)nc2N(C)C1=O [Compound 3-3]	> 5.00

Next, values leading:

pIC50	SMILES
> 5.00	CCOC(=O)N1CCC(Nc2ncc3c(n2)NC(=O)N(c2ccccc2Cl)C3)CC1 [Compound 2-28, 3-(2-chlorophenyl)-7-(1-ethoxycarbonylpiperidin-4-ylamino)-3,4-dihydropyrimido[4,5-d]pyrimidin-2(1H)-one]
> 5.00	Cc1ccccc1N1Cc2cnc(NC(C)(C)CO)nc2N(C)C1=O [Compound 3-12]
> 5.00	O=C1N(c2ccccc2Cl)Cc2cnc(N[C@H]3CC[C@H](O)CC3)nc2N1CC(F)(F)F [Compound 3-60, 3-(2-chlorophenyl)-7-(trans-4-hydroxycyclohexylamino)-1-(2,2,2-trifluoroethyl)-3,4-dihydropyrimido[4,5-d]pyrimidin-2(1H)-one]
